Assay results reported in patent US20120148677A1, “CONTROLLED RELEASE PARTICLES CONTAINING ACID FIBROBLAST GROWTH FACTOR” (Taipei Veterans General Hospital, priority 2010, published 2012).
pEC50: −log10 of the molar value.

Tests used:
trypsin = molecular target: T1, trypsin (Bos taurus, UniProt P00760); experiment: Proteolytic sensitivity to trypsin digestion, Western blot; assay type: in vitro ADME; conditions: after 5 min of digestion, aFGF:trypsin 1:400, PBS, 37° C.
T1 construct: purchased Sigma T1426
T1 sequence (P00760 24-246): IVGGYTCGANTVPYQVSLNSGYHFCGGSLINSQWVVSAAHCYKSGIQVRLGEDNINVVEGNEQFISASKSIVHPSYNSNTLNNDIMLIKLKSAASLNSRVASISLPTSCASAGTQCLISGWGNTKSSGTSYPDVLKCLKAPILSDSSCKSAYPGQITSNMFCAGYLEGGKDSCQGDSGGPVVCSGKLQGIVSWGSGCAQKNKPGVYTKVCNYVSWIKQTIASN
Procedure: In order to test how well of the particles can protect aFGF from an enzyme digestion, we mixed aFGF or the particles entrapping aFGF with a protein enzyme, trypsin. The aFGF and trypsin (Sigma, T1426) was mixed with the ratio of 1:400 in PBS bathed at 37° C. Ten microliters of product was taken out at various time intervals to mix with 10 ul of 2×SDS-sample buffer. The solution was then immediately being boiled for 5 mins to cease enzyme reaction.
As shown in the results, the binding of aFGF to heparin increased the stability to overcome the challenge in vivo. To simulate physiological environment, the experiment was held at 37° C. The intact aFGF and aFGF in the particles of the invention were digested by Trypsin respectively, and aFGF antibody was used to detect the remaining aFGF. With the increase in time of enzyme digestion, the amount of aFGF decreases.

PC-12 cells = experiment: 6-OHDA neurotoxicity in PC-12 cells, MTT cell viability assay; assay type: cell-based
Procedure: The neurotoxicity was test by PC-12 cells which were rat pheochromocytoma cell line. The cells were supplied by the Bioresource Collection and Research Center, Food Industry Research and Development Institute, Hsinchu, Taiwan, and maintained in RPMI 1640 supplemented with 10% HBS, 5% FBS, 1% penicillin/streptomycin (Gibco) at 37° C. in a humidified atmosphere containing 5% CO2 and the culture medium was changed every 2 days.
6-hydroxydopamin (6-OHDA) is a neurotoxin, which leads to apoptosis of catecholaminergic cells. This pharmacological mechanism can be used to test neuron protecting efficiency of aimed drugs. The cells were seeded in 96 well plates at a density of 4×10^4 cells/well, which were pre-coated with collagen. Following 24 hrs of starvation, the medium was changed into 5% serum. The experimental groups were given different treatments and added with 6-OHDA (sigma) until reaching the concentration of 100 uM. The medium without 6-OHDA works as control. The relative number of viable cells was monitored by MTT assay.
MTT (3-(4,5-Dimethylthiazol-2-yl)-2,5-diphenyltetrazolium bromide) was a tetrazolium salt that can be reduced to purple-colored formazan by normal cell. The stock solution of MTT (5 mg/ml) was added into each well to make the medium of 0.5 mg/ml MTT and cells were incubated for 4 h. The supernatant was removed to obtain the MTT metabolic product, formazan, which was then dissolved in 120 ul DMSO (dimethylsulfoxide, sigma) and placed on a shaking table for 5 min until thoroughly dissolved. 100 ul of dissolved-formazan from each well was transferred into another plate to measure the absorbance with 560 nm at background 670 nm.
The dosage used was 100 uM, which caused about 40% apoptosis. […] The empty particles (without aFGF) and the particles entrapping an aFGF were soaked in culture medium for 2 days at 4° C. The supernatant was then collected and diluted at different concentrations for treatment of the 6-OHDA-damaged PC-12 cells.

acid fibroblast growth factor [aFGF]
remaining aFGF band after trypsin digestion (trypsin): almost disappeared | survival rate (PC-12 cells; 10 pg/ml aFGF, 100 uM 6-OHDA, PC-12 cells): more than 72.63% | survival rate (PC-12 cells; 10 ng/ml aFGF, 100 uM 6-OHDA, PC-12 cells): 88.41% | effect on PC-12 death (PC-12 cells; 6-OHDA-treated PC-12 cells, FIG. 5): significantly blocks PC-12 death

NCCc1cc(O)c(O)cc1O [6-OHDA, 6-hydroxydopamin, reference compound]
apoptosis (PC-12 cells; 100 uM 6-OHDA, PC-12 cells): about 40% | pEC50 (PC-12 cells; Rattus norvegicus, PC-12, read-out: ED50 (neurotoxicity)): ~3.90
